Source: patent US4780412A, “Fibrinolytic enzymes produced from established non-cancerous cell lines” (priority 1982, dated 1988)
Where a name gives a salt, the structure may show the parent alone. Square brackets hold non-standard residues; d marks the D form. Peptide text beside a SMILES is read from it. * marks the point of attachment. pNA = O=[N+]([O-])c1ccc(N*)cc1; Bz = O=C(c1ccccc1)*

Tests used:
[1] = biological target: T1, GPK derived enzyme (from cell line GPK, CNCMI-222) (Cavia porcellus, UniProt H0W0Z7); experiment: Inhibition of GPK-derived enzyme activity by 2-mercaptoethanol (fibrin plate, fibrin clot lysis time); type: biochemical; conditions: 2-mercaptoethanol at 10 mM or above, incubated 15 min at 37° C., pH 7.8; residual activity on plasminogen containing fibrin plate and by clot lysis time
T1 construct: residual activity on plasminogen-containing fibrin plate
Description: Various dilutions of the stock solution of 2-mercaptoethanol were prepared in 0.05M sodium diethylbarbiturate buffer, pH 7.8 containing 0.01% Tween 80. GPK derived enzyme (25 μg/ml) was mixed with an equal volume of diluted 2-mercaptoethanol solution and the mixture incubated at 37° C. Control sample contained enzyme with an equal volume of buffer. After 15 min, 50 μl aliquot of the mixture was applied to plasminogen containing fibrin plate to assess the residual enzyme activity. The enzyme activity was also quantitated by fibrin clot lysis time method.

[2] = system: Thrombin; conditions: values quoted in literature; cited from earlier work
[3] = biological target: T2, GPK derived enzyme, partially purified (fibrinolytic enzyme / plasminogen activator from cell line GPK, CNCMI-222) (Cavia porcellus, UniProt H0W0Z7); experiment: Amidolytic activity on chromogenic substrates (release of p-nitroaniline at 405 nm); type: biochemical
T2 construct: zinc chelate agarose, partially purified from culture supernatant
Description: The amidolytic activity of the GPK derived enzyme was determined using various chromogenic substrates. […] Z

[4] = biological target: Melanoma (malignant melanoma plasminogen activator, HEPA) (Homo sapiens, UniProt P00750); conditions: values quoted in literature; cited from earlier work
[5] = biological target: Urokinase (Homo sapiens, UniProt P00749); conditions: values quoted in literature; cited from earlier work
[6] = system: Plasmin; conditions: values quoted in literature; cited from earlier work

T2 sequence (H0W0Z7 33-559): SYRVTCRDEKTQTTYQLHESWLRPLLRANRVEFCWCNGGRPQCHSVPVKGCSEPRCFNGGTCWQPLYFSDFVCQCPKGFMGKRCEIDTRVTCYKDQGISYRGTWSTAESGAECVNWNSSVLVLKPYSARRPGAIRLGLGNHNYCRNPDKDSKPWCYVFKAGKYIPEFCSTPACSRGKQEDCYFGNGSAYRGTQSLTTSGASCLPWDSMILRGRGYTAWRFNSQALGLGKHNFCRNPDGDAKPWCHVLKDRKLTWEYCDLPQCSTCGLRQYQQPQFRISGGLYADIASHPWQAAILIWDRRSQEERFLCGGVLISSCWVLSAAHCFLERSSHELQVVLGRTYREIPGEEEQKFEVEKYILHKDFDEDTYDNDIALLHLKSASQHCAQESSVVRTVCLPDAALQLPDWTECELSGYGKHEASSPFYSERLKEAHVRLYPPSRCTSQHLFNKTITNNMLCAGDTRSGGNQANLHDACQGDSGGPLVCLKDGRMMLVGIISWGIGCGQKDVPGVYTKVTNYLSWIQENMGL
Sequence of Melanoma (malignant melanoma plasminogen activator, HEPA) (P00750 36-562): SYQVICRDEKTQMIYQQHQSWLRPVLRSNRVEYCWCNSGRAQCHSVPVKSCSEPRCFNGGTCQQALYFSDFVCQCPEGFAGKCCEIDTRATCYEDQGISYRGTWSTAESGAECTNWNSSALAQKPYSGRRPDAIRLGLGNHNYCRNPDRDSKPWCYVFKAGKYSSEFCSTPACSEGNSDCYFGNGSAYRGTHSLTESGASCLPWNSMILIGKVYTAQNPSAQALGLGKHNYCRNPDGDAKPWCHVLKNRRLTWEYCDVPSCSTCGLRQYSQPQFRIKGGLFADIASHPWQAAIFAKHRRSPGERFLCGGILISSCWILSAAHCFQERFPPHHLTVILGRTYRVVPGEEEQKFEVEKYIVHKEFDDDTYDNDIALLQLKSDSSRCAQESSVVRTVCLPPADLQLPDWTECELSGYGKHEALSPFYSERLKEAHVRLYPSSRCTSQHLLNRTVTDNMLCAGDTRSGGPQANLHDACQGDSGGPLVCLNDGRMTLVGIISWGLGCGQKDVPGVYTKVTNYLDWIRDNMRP
T1 sequence (H0W0Z7 33-559): as the sequence (H0W0Z7 33-559) above

Row | Structure (SMILES) | Km [2] | Vmax [2] | Km [5] | Vmax [5] | Km [6] | Vmax [6] | other results
1 | OCCS [2-mercaptoethanol] | – | – | – | – | – | – | proportion of the enzyme activity inhibited [1]: > 80%
2 | CC(C)[C@H](NC(=O)[C@H](Cc1ccccc1)NC(=O)c1ccccc1)C(=O)N[C@@H](CCCNC(=N)N)C(=O)Nc1ccc([N+](=O)[O-])cc1 [Benzoyl-Phe--Val--Arg--pNa.HCl] (Bz-Phe-Val-Arg-pNA) | 110 µM | 0.036 M/min/NIH.U | – | – | – | – | –
3 | CC(C)[C@H](NC(=O)c1ccccc1)C(=O)NCC(=O)N[C@@H](CCCNC(=N)N)C(=O)Nc1ccc([N+](=O)[O-])cc1 [Benzoyl-Val--Gly--Arg--pNA.HCl] (Bz-Val-Gly-Arg-pNA) | – | – | – | – | – | – | Vmax ([3]; pH 9.0 (line above), ionic strength I 0.0035, substrate concentration by extinction): 1.4 M/min/M enzyme; Vmax ([3]; pH 9.0, ionic strength I 0.05, 0.05M Tris-HCl, 37° C.): 1.1 M/min/M enzyme; Km [4]: 1000 µM; Vmax [4]: 0.53 M/min/IU
4 | N=C(N)NCCC[C@H](NC(=O)[C@H](CCC(=O)O)NC(=O)[C@@H](N)CCC(=O)O)C(=O)Nc1ccc([N+](=O)[O-])cc1 [Glu--Glu--Arg--pNA.HCl] (H-Glu-Glu-Arg-pNA) | – | – | 90 µM | 3.1 × 10^-4 M/min/PLOUG.U | – | – | –
5 | CC[C@@H](C)[C@@H](N)C(=O)N1CCC[C@H]1C(=O)N[C@@H](CCCNC(=N)N)C(=O)Nc1ccc([N+](=O)[O-])cc1 [H--D--Ile--Pro--Arg--pNA.2HCl] (H-[dI]-Pro-Arg-pNA) | 3 µM | 0.1 M/min/U | 200 µM | 2 × 10^-4 M/min/U | 9000 µM | 5 m/min/U | –
6 | CC(C)C[C@H](NC(=O)[C@H](N)C(C)C)C(=O)N[C@@H](CCCCN)C(=O)Nc1ccc([N+](=O)[O-])cc1 [H--D--Val--Leu--Lys--pNA.2HCl] (H-[dV]-Leu-Lys-pNA) | – | – | – | – | 300 µM | 0.5 M/min/CU | Vmax ([3]; pH 7.4, ionic strength I 0.006, 0.05M Tris-HCl, 37° C.): 27 M/min/M enzyme; Vmax ([3]; pH 7.4, ionic strength I 0.15, 0.05M Tris-HCl, 37° C.): 14.7 M/min/M enzyme; Vmax ([3]; pH 9.0, ionic strength I 0.15, 0.05M Tris-HCl, 37° C.): 4.08 M/min/M enzyme
